Laboratory results as given in patent US20260091026A1, “METHODS OF TREATING INFLAMMATORY DISEASES” (INTERLINE THERAPEUTICS, INC., priority 2023, published 2026).

How the values were obtained:
RIPK2 (KD)/XIAP (BIR2) = molecular target: T1, RIPK2 (KD)/XIAP (BIR2) (Homo sapiens, UniProt O43353); test: RIPK2-XIAP binding competition PPI assay (TR-FRET); details: for Emax: 50 nM of GSK583 = -100% activity, read-out: PPI Amax; for IC50: GST-RIPK2 / His-XIAP (BIR2)-avi, 120 min at 23° C.
T1 construct: made in house; host or cells: baculovirus-infected Sf9 cells
Procedure, shortened: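 After 2 h at 23 °C, complex formation was read as the 665/520 nm emission ratio (337 nm excitation), scaled between uninhibited reaction and 50 nM GSK583. The mix held 1 nM human RIPK2 kinase fragment-GST, 25 nM His-tagged XIAP BIR2 and Tb/XL665 antibodies in pH 7.5 Tris buffer containing vanadate and glycerophosphate.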

[1] = tested on: THP1-Dual cells, NF-κB pathway (SEAP); test: THP-1 Dual cell SEAP assay (L18-MDP stimulated); assay type: cell-based; details: Homo sapiens, 10 ng/mL L18-MDP, 20-24 h, SEAP readout, read-out: IFNγ THP1 IC50
Procedure, shortened: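 IC50 values come from non-linear fits of % inhibition of SEAP, measured as QUANTI-Blue optical density (620-655 nm, 2 h) in media-blanked supernatants. These were taken from THP1-Dual cells treated with compound for 30 min before overnight exposure to 10 ng/mL L18-MDP final at 37 °C.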

T1 sequence (O43353 1-310): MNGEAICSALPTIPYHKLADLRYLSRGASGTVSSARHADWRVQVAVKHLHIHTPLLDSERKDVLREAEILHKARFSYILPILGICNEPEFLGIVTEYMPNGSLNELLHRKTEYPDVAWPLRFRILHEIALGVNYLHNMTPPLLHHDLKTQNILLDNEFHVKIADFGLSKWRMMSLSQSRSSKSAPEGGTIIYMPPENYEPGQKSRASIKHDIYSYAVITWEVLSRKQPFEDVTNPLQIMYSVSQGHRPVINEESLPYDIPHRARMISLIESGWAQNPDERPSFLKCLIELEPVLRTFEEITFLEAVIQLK

SMILES: COc1cc2ncc(-c3cc(C(=O)N[C@H](C)c4ncc(F)cn4)n(C)n3)n2cc1S(=O)(=O)C(C)(C)C [Example 104, (R)-3-(6-(tert-butylsulfonyl)-7-methoxyimidazo[1,2-a]pyridin-3-yl)-N-(1-(5-fluoropyrimidin-2-yl)ethyl)-1-methyl-1H-pyrazole-5-carboxamide]
- Emax (RIPK2 (KD)/XIAP (BIR2)): ≥ 80%
- IC50 (RIPK2 (KD)/XIAP (BIR2)): > 1000 nM
- IC50 [1]: > 2500 nM

SMILES: COCCn1nc(-c2cnc3cc(OC)c(S(=O)(=O)C(C)(C)C)cn23)cc1C(=O)N[C@H](C)c1ccccn1 [Example 105, (R)-3-(6-(tert-butylsulfonyl)-7-methoxyimidazo[1,2-a]pyridin-3-yl)-1-(2-methoxyethyl)-N-(1-(pyridin-2-yl)ethyl)-1H-pyrazole-5-carboxamide]
- Emax (RIPK2 (KD)/XIAP (BIR2)): ≥ 80%
- IC50 (RIPK2 (KD)/XIAP (BIR2)): 10 to 100 nM
- IC50 [1]: 500 to 2500 nM

SMILES: COc1cc2ncc(-c3cc(C(=O)N[C@H](C)c4ccccn4)n(CC(F)(F)CO)n3)n2cc1S(=O)(=O)C(C)(C)C [Example 106, (R)-3-(6-(tert-butylsulfonyl)-7-methoxyimidazo[1,2-a]pyridin-3-yl)-1-(2,2-difluoro-3-hydroxypropyl)-N-(1-(pyridin-2-yl)ethyl)-1H-pyrazole-5-carboxamide]
- Emax (RIPK2 (KD)/XIAP (BIR2)): ≥ 80%
- IC50 (RIPK2 (KD)/XIAP (BIR2)): 10 to 100 nM
- IC50 [1]: 100 to 500 nM

SMILES: COc1cc2ncc(-c3cc(C(=O)N[C@H](C)c4ncccn4)n(CC(F)(F)CO)n3)n2cc1S(=O)(=O)C(C)(C)C [Example 107, (R)-3-(6-(tert-butylsulfonyl)-7-methoxyimidazo[1,2-a]pyridin-3-yl)-1-(2,2-difluoro-3-hydroxypropyl)-N-(1-(pyrimidin-2-yl)ethyl)-1H-pyrazole-5-carboxamide]
- Emax (RIPK2 (KD)/XIAP (BIR2)): ≥ 80%
- IC50 (RIPK2 (KD)/XIAP (BIR2)): 10 to 100 nM
- IC50 [1]: 500 to 2500 nM

SMILES: C[C@@H](NC(=O)c1cc(-c2cnc3cc(OCCO)c(S(=O)(=O)C(C)(C)C)cn23)nn1C)c1ncccn1 [Example 108, (R)-3-(6-(tert-butylsulfonyl)-7-(2-hydroxyethoxy)imidazo[1,2-a]pyridin-3-yl)-1-methyl-N-(1-(pyrimidin-2-yl)ethyl)-1H-pyrazole-5-carboxamide]
- Emax (RIPK2 (KD)/XIAP (BIR2)): ≥ 80%
- IC50 (RIPK2 (KD)/XIAP (BIR2)): 10 to 100 nM
- IC50 [1]: 100 to 500 nM

SMILES: C[C@@H](NC(=O)c1cc(-c2cnc3cc(OCCO)c(S(=O)(=O)C(C)(C)C)cn23)nn1C)c1ccccn1 [Example 109, (R)-3-(6-(tert-butylsulfonyl)-7-(2-hydroxyethoxy)imidazo[1,2-a]pyridin-3-yl)-1-methyl-N-(1-(pyridin-2-yl)ethyl)-1H-pyrazole-5-carboxamide]
- Emax (RIPK2 (KD)/XIAP (BIR2)): ≥ 80%
- IC50 (RIPK2 (KD)/XIAP (BIR2)): 10 to 100 nM
- IC50 [1]: 100 to 500 nM

SMILES: C[C@@H](NC(=O)c1cc(-c2cnc3cc(OCCO)c(S(=O)(=O)C(C)(C)C)cn23)nn1C)c1ncccc1F [Example 110, (R)-3-(6-(tert-butylsulfonyl)-7-(2-hydroxyethoxy)imidazo[1,2-a]pyridin-3-yl)-N-(1-(3-fluoropyridin-2-yl)ethyl)-1-methyl-1H-pyrazole-5-carboxamide]
- Emax (RIPK2 (KD)/XIAP (BIR2)): ≥ 80%
- IC50 (RIPK2 (KD)/XIAP (BIR2)): 10 to 100 nM
- IC50 [1]: < 100 nM

SMILES: C[C@@H](NC(=O)c1cc(-c2cnc3cc(OCCO)c(S(=O)(=O)C(C)(C)C)cn23)nn1C)c1ncccc1Cl [Example 111, (R)-3-(6-(tert-butylsulfonyl)-7-(2-hydroxyethoxy)imidazo[1,2-a]pyridin-3-yl)-N-(1-(3-chloropyridin-2-yl)ethyl)-1-methyl-1H-pyrazole-5-carboxamide]
- Emax (RIPK2 (KD)/XIAP (BIR2)): ≥ 80%
- IC50 (RIPK2 (KD)/XIAP (BIR2)): 10 to 100 nM
- IC50 [1]: 100 to 500 nM

SMILES: C[C@H](NC(=O)c1cc(-c2cnc3cc(OCCO)c(S(=O)(=O)C(C)(C)C)cn23)nn1C)c1ncccc1Cl [Example 112, (S)-3-(6-(tert-butylsulfonyl)-7-(2-hydroxyethoxy)imidazo[1,2-a]pyridin-3-yl)-N-(1-(3-chloropyridin-2-yl)ethyl)-1-methyl-1H-pyrazole-5-carboxamide]
- Emax (RIPK2 (KD)/XIAP (BIR2)): 55 to 80%
- IC50 (RIPK2 (KD)/XIAP (BIR2)): > 1000 nM
- IC50 [1]: > 2500 nM

SMILES: COc1cn2ncc(-c3cc(C(=O)N[C@H](C)c4ccccn4)n(C)n3)c2cc1S(=O)(=O)C(C)(C)C [Example 113, (R)-3-(5-(tert-butylsulfonyl)-6-methoxypyrazolo[1,5-a]pyridin-3-yl)-1-methyl-N-(1-(pyridin-2-yl)ethyl)-1H-pyrazole-5-carboxamide]
- Emax (RIPK2 (KD)/XIAP (BIR2)): ≥ 80%
- IC50 (RIPK2 (KD)/XIAP (BIR2)): 100 to 1000 nM
- IC50 [1]: 500 to 2500 nM

SMILES: COc1cn2ncc(-c3cc(C(=O)N[C@H](C)c4ncccc4F)n(C)n3)c2cc1S(=O)(=O)C(C)(C)C [Example 114, (R)-3-(5-(tert-butylsulfonyl)-6-methoxypyrazolo[1,5-a]pyridin-3-yl)-N-(1-(3-fluoropyridin-2-yl)ethyl)-1-methyl-1H-pyrazole-5-carboxamide]
- Emax (RIPK2 (KD)/XIAP (BIR2)): ≥ 80%
- IC50 (RIPK2 (KD)/XIAP (BIR2)): 10 to 100 nM
- IC50 [1]: 100 to 500 nM

SMILES: C[C@@H](NC(=O)c1cc(-c2cnn3cc(OCCO)c(S(=O)(=O)C(C)(C)C)cc23)nn1C)c1ccccn1 [Example 115, (R)-3-(5-(tert-butylsulfonyl)-6-(2-hydroxyethoxy)pyrazolo[1,5-a]pyridin-3-yl)-1-methyl-N-(1-(pyridin-2-yl)ethyl)-1H-pyrazole-5-carboxamide]
- Emax (RIPK2 (KD)/XIAP (BIR2)): ≥ 80%
- IC50 (RIPK2 (KD)/XIAP (BIR2)): 10 to 100 nM
- IC50 [1]: 500 to 2500 nM

SMILES: C[C@@H](NC(=O)c1cc(-c2cnn3cc(OCCO)c(S(=O)(=O)C(C)(C)C)cc23)nn1C)c1ncccc1F [Example 116, (R)-3-(5-(tert-butylsulfonyl)-6-(2-hydroxyethoxy)pyrazolo[1,5-a]pyridin-3-yl)-N-(1-(3-fluoropyridin-2-yl)ethyl)-1-methyl-1H-pyrazole-5-carboxamide]
- Emax (RIPK2 (KD)/XIAP (BIR2)): ≥ 80%
- IC50 (RIPK2 (KD)/XIAP (BIR2)): 10 to 100 nM
- IC50 [1]: 100 to 500 nM

SMILES: CCn1nc(-c2cnn3cc(OCCO)c(S(=O)(=O)C(C)(C)C)cc23)cc1C(=O)N[C@H](C)c1ncccn1 [Example 117, (R)-3-(5-(tert-butylsulfonyl)-6-(2-hydroxyethoxy)pyrazolo[1,5-a]pyridin-3-yl)-1-ethyl-N-(1-(pyrimidin-2-yl)ethyl)-1H-pyrazole-5-carboxamide]
- Emax (RIPK2 (KD)/XIAP (BIR2)): ≥ 80%
- IC50 (RIPK2 (KD)/XIAP (BIR2)): 10 to 100 nM
- IC50 [1]: < 100 nM

SMILES: CCn1nc(-c2cnc3cc(OCCO)c(S(=O)(=O)C(C)(C)C)cn23)cc1C(=O)N[C@H](C)c1ncccc1F [Example 118, (R)-3-(6-(tert-butylsulfonyl)-7-(2-hydroxyethoxy)imidazo[1,2-a]pyridin-3-yl)-1-ethyl-N-(1-(3-fluoropyridin-2-yl)ethyl)-1H-pyrazole-5-carboxamide]
- Emax (RIPK2 (KD)/XIAP (BIR2)): ≥ 80%
- IC50 (RIPK2 (KD)/XIAP (BIR2)): < 10 nM
- IC50 [1]: < 100 nM

SMILES: CCn1nc(-c2cnc3cc(OCCO)c(S(=O)(=O)C(C)(C)C)cn23)cc1C(=O)N[C@H](C)c1ncccn1 [Example 119, (R)-3-(6-(tert-butylsulfonyl)-7-(2-hydroxyethoxy)imidazo[1,2-a]pyridin-3-yl)-1-ethyl-N-(1-(pyrimidin-2-yl)ethyl)-1H-pyrazole-5-carboxamide]
- Emax (RIPK2 (KD)/XIAP (BIR2)): ≥ 80%
- IC50 (RIPK2 (KD)/XIAP (BIR2)): < 10 nM
- IC50 [1]: < 100 nM

SMILES: CCn1nc(-c2cnc3cc(OCCO)c(S(=O)(=O)C(C)(C)C)cn23)cc1C(=O)N[C@H](C)c1nccs1 [Example 120, (R)-3-(6-(tert-butylsulfonyl)-7-(2-hydroxyethoxy)imidazo[1,2-a]pyridin-3-yl)-1-ethyl-N-(1-(thiazol-2-yl)ethyl)-1H-pyrazole-5-carboxamide]
- Emax (RIPK2 (KD)/XIAP (BIR2)): ≥ 80%
- IC50 (RIPK2 (KD)/XIAP (BIR2)): < 10 nM
- IC50 [1]: < 100 nM

SMILES: CCn1nc(-c2cnc3cc(OCCO)c(S(=O)(=O)C(C)(C)C)cn23)cc1C(=O)N[C@H](C)c1ccccn1 [Example 121, (R)-3-(6-(tert-butylsulfonyl)-7-(2-hydroxyethoxy)imidazo[1,2-a]pyridin-3-yl)-1-ethyl-N-(1-(pyridin-2-yl)ethyl)-1H-pyrazole-5-carboxamide]
- Emax (RIPK2 (KD)/XIAP (BIR2)): ≥ 80%
- IC50 (RIPK2 (KD)/XIAP (BIR2)): < 10 nM
- IC50 [1]: < 100 nM

SMILES: CCn1nc(-c2cnc3cc(OCCO)c(S(=O)(=O)C(C)(C)C)cn23)cc1C(=O)N[C@H](C)c1ccn(C)n1 [Example 122, (R)-3-(6-(tert-butylsulfonyl)-7-(2-hydroxyethoxy)imidazo[1,2-a]pyridin-3-yl)-1-ethyl-N-(1-(1-methyl-1H-pyrazol-3-yl)ethyl)-1H-pyrazole-5-carboxamide]
- Emax (RIPK2 (KD)/XIAP (BIR2)): ≥ 80%
- IC50 (RIPK2 (KD)/XIAP (BIR2)): 10 to 100 nM
- IC50 [1]: < 100 nM

SMILES: CCn1nc(-c2cnc3cc(OCCO)c(S(=O)(=O)C(C)(C)C)cn23)cc1C(=O)N[C@@H](C)c1ccn(C)n1 [Example 123, (S)-3-(6-(tert-butylsulfonyl)-7-(2-hydroxyethoxy)imidazo[1,2-a]pyridin-3-yl)-1-ethyl-N-(1-(1-methyl-1H-pyrazol-3-yl)ethyl)-1H-pyrazole-5-carboxamide]
- Emax (RIPK2 (KD)/XIAP (BIR2)): ≥ 80%
- IC50 (RIPK2 (KD)/XIAP (BIR2)): 100 to 1000 nM
- IC50 [1]: > 2500 nM

SMILES: CCn1nc(-c2cnc3cc(OC)c(S(=O)(=O)C(C)(C)C)cn23)cc1C(=O)N[C@@H](C)c1ccn(C)n1 [Example 124, (S)-3-(6-(tert-butylsulfonyl)-7-methoxyimidazo[1,2-a]pyridin-3-yl)-1-ethyl-N-(1-(1-methyl-1H-pyrazol-3-yl)ethyl)-1H-pyrazole-5-carboxamide]
- Emax (RIPK2 (KD)/XIAP (BIR2)): ≥ 80%
- IC50 (RIPK2 (KD)/XIAP (BIR2)): 100 to 1000 nM
- IC50 [1]: > 2500 nM

SMILES: CCn1nc(-c2cnc3cc(OC)c(S(=O)(=O)C(C)(C)C)cn23)cc1C(=O)N[C@H](C)c1ccn(C)n1 [Example 125, (R)-3-(6-(tert-butylsulfonyl)-7-methoxyimidazo[1,2-a]pyridin-3-yl)-1-ethyl-N-(1-(1-methyl-1H-pyrazol-3-yl)ethyl)-1H-pyrazole-5-carboxamide]
- Emax (RIPK2 (KD)/XIAP (BIR2)): ≥ 80%
- IC50 (RIPK2 (KD)/XIAP (BIR2)): 10 to 100 nM
- IC50 [1]: < 100 nM
